In patent US7211424B1, “Mammalian Subtilisin/kexin isozyme SKI-1: a proprotein convertase with a unique cleavage specificity” (Institut de Recherches Cliniques de Montreal, priority 1999, dated 2007):
Read-outs that look alike come from different tables or passages of the source.

How the values were obtained:
SKI-1 [1] = target: T1, SKI-1 (Homo sapiens, UniProt Q14703); test: Example 6: synthetic peptides examined as possible substrates of recombinant SKI-1; type: biochemical; design: made in house
T1 sequence (Q14703 187-1052): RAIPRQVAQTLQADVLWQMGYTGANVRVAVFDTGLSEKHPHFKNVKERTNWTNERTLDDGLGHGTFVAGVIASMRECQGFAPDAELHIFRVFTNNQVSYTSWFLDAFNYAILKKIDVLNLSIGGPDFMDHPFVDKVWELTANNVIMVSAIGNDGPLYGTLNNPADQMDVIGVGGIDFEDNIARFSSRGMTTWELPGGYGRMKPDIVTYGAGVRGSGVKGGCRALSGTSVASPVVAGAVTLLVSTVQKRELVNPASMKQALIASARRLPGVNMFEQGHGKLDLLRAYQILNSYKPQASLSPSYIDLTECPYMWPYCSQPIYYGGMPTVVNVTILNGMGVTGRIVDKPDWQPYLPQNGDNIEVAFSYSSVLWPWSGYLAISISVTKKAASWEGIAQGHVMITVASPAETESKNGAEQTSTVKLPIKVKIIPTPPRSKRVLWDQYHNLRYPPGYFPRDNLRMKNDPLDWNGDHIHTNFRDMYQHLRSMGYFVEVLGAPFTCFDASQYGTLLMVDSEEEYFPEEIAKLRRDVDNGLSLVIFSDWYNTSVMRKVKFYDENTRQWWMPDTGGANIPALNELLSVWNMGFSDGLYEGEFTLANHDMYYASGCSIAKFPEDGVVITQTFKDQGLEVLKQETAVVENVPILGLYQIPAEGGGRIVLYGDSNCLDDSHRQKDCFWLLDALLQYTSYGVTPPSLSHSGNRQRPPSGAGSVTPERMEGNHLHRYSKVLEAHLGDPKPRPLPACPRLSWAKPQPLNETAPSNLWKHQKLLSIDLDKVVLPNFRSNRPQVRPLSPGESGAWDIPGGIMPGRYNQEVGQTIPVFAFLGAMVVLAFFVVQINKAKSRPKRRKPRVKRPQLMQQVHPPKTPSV
Description: A large number of synthetic peptides based on potential cleavage sites in the hSKI-1 prodomain, proBDNF and the loop region of SREBP-2 were synthesized.
These peptides were examined as possible substrates of SKI-1.

SKI-1 [2] = target: T1, SKI-1; conditions: previously established (ref. 10); cited from earlier work
SKI-1 [3] = target: T2, SKI-1 (Homo sapiens, UniProt Q14703); type: biochemical
T2 sequence (Q14703 187-998 limits assumed): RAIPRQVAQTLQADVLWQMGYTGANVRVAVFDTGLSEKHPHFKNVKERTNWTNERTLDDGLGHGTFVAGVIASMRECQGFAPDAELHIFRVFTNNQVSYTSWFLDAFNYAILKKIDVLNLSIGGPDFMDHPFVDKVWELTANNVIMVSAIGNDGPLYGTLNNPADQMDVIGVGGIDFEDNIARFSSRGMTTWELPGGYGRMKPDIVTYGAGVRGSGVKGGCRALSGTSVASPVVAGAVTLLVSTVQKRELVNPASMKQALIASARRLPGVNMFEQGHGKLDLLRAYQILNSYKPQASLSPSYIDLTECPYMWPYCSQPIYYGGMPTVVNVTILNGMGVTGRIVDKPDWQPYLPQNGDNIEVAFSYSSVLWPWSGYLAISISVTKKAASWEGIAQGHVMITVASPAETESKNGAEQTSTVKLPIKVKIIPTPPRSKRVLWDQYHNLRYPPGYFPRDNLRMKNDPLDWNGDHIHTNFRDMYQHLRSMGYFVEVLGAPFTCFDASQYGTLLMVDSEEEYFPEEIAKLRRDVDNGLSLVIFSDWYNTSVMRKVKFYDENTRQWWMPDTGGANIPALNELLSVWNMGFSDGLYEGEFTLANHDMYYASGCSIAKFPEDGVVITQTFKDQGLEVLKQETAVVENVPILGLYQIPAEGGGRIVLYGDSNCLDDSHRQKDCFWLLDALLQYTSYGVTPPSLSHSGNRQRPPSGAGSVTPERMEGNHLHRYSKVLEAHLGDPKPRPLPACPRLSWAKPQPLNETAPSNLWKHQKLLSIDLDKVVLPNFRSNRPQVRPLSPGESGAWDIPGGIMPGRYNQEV

[4] = substrate: CC(C)C[C@H](NC(=O)[C@H](C)NC(=O)[C@H](CCCNC(=N)N)NC(=O)[C@H](CC(C)C)NC(=O)[C@H](CC(C)C)NC(=O)[C@H](CCCNC(=N)N)NC(=O)[C@H](CCCNC(=N)N)NC(=O)[C@H](CO)NC(=O)[C@H](CO)NC(=O)[C@H](Cc1c[nH]cn1)NC(=O)[C@H](CCCNC(=N)N)NC(=O)CNC(=O)[C@@H](NC(=O)[C@H](C)NC(=O)[C@H](Cc1c[nH]cn1)NC(=O)[C@@H](N)Cc1c[nH]c2ccccc12)[C@@H](C)O)C(=O)N[C@@H](CCC(=O)O)C(N)=O; test: purified protein, by the assay type; conditions: other: BTMD-SKI-1 medium, times giving 5–30% substrate hydrolysis; averages of duplicate assays; pH 6.5; 37.0 °C
[5] = substrate: CC(C)C[C@H](NC(=O)[C@H](C)NC(=O)[C@H](CCCNC(=N)N)NC(=O)[C@H](CC(C)C)NC(=O)[C@H](CC(C)C)NC(=O)[C@H](CCCNC(=N)N)NC(=O)[C@H](CCCNC(=N)N)NC(=O)[C@@H](N)CO)C(=O)N[C@@H](CCC(=O)O)C(N)=O; test: purified protein, by the assay type; conditions: other: BTMD-SKI-1 medium, times giving 5–30% substrate hydrolysis; averages of duplicate assays; pH 6.5; 37.0 °C
[6] = substrate: CC(C)C[C@H](NC(=O)[C@@H](NC(=O)[C@H](CO)NC(=O)[C@H](CCCNC(=N)N)NC(=O)CNC(=O)[C@H](CO)NC(=O)CNC(=O)[C@H](CO)NC(=O)[C@H](Cc1c[nH]cn1)NC(=O)[C@@H]1CCCN1C(=O)[C@H](Cc1c[nH]cn1)NC(=O)[C@H](CCC(N)=O)NC(=O)[C@H](CC(=O)O)NC(=O)[C@H](CO)NC(=O)[C@H](CC(=O)O)NC(=O)[C@H](Cc1c[nH]cn1)NC(=O)[C@H](C)NC(=O)CNC(=O)CN)C(C)C)C(=O)N[C@@H](CO)C(=O)N[C@@H](Cc1ccccc1)C(=O)N[C@@H](CCC(=O)O)C(=O)N[C@@H](CO)C(=O)NCC(=O)N[C@@H](CO)C(=O)NCC(=O)NCC(=O)O; test: purified protein, by the assay type; conditions: other: BTMD-SKI-1 medium, times giving 5–30% substrate hydrolysis; averages of duplicate assays; pH 6.5; 37.0 °C
BTMD-hSKI-1 = target: T3, BTMD-hSKI-1 (Homo sapiens, UniProt Q14703); type: biochemical
T3 sequence (Q14703 187-997 limits assumed): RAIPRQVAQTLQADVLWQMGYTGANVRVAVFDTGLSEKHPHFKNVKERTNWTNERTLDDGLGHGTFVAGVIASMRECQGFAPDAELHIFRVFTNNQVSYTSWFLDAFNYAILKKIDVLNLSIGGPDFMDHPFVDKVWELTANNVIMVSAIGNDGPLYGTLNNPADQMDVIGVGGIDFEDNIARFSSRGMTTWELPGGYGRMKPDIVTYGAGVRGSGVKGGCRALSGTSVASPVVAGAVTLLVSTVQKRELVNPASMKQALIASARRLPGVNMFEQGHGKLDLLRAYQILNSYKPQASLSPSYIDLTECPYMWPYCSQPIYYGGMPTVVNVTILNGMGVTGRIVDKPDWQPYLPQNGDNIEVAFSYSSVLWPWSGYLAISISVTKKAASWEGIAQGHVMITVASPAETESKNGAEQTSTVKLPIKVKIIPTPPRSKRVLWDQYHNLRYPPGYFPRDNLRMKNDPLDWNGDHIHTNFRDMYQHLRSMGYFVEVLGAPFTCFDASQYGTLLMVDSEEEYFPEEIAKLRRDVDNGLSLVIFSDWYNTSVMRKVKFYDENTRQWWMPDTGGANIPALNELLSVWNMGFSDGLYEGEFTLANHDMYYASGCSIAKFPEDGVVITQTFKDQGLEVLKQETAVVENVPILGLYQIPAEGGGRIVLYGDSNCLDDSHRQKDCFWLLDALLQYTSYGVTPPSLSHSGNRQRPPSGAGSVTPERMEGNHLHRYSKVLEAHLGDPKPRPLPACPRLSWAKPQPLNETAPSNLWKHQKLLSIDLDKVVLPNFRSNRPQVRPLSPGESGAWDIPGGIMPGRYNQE

Q: For PQRKVFRSLKYAESD [IX], which “cleavage by the recombinant SKI-1” value (SKI-1 [1]) is on record?
A: efficiently cleaved

Q: With RGLTT-MCA as the molecule, how does the “cleavage of fluorogenic MCA peptides lacking P′ residues” value (SKI-1 [2]) read?
A: does not cleave

Q: With “Ser-Gly-Ser-Gly-Arg-Ser-Val-Leu↓Ser-Phe-Glu-Ser [(x)]” as the molecule, how does the “cleavage by the recombinant SKI-1” value (SKI-1 [1]) read?
A: efficiently cleaved

Q: Which “cleavage by the recombinant SKI-1” value (SKI-1 [1]) does the source give for “Ser-Ser-Arg-Arg-Leu-Leu↓Arg-Ala-Ile-Glu [(iv)]” here?
A: efficiently cleaved

Q: With c1cnc2c(c1)ccc1cccnc12 [O-Phenanthroline, o-phenanthroline] as the molecule, how does the “inhibition of the processing of proBDNF by SKI-1” value (SKI-1 [3]; at 1 mM) read?
A: 25%

Q: And the “inhibition of the processing of proBDNF by SKI-1” value (SKI-1 [3]; overnight 37° C., pH 6.0, PMSF 0.5 mM + pAPMSF 50 μM, o-phenanthroline 5 mM, EDTA 10 mM)?
A: effectively inhibit

Q: With RSVL-MCA as the molecule, how does the “cleavage of fluorogenic MCA peptides lacking P′ residues” value (SKI-1 [2]) read?
A: does not cleave

Q: Which “cleavage of fluorogenic MCA peptides lacking P′ residues” value (SKI-1 [2]) does the source give for RGLT-MCA here?
A: does not cleave

B1: BTMD-hSKI-1 (Homo sapiens) (protein)
chain: T3 sequence (Q14703 187-997 limits assumed)
Q: With B1 as the molecule, how does the Km [4] read?
A: 17 nM*1000

Q: And the Vmax [4]?
A: 6.67e-06 µmol/min

Q: And the Km [5]?
A: 109 nM*1000

Q: And the Vmax [5]?
A: 1.83e-05 µmol/min

Q: And the Km [6]?
A: 124 nM*1000

Q: What about the Vmax [6] of the same molecule?
A: 8.33e-06 µmol/min

B2: ˜14 kDa peptide: ˜14 kDa N-terminal fragment of the SKI-1 prosegment, major secreted form (protein)
chain: GKKHLGDRLEKKSFEKAPCPGCSHLTLKVEFSSTVVEYEYIVAFNGYFTAKARNSFISSALKSSEVDNWRIIPRNNPSSDYPSDFEVIQIKEKQKAGLLTLEDHPNIKRVTPQRKVFRSL
Q: For B2, which “inhibitory activity of the RP-HPLC-fractionated native prosegment” value (BTMD-hSKI-1) is on record?
A: not inhibitory
